From patent publication US20190315823A1, “SMALL CATIONIC ANTI-BIOFILM AND IDR PEPTIDES” (priority 2013, published 2019)
Ends that are not written are not given here.

Legend:
[1] = test system: human peripheral blood mononuclear cells (MCP-1); test: SPOT-synthesized derivative screen: production of chemokine MCP-1; type: cell-based; conditions: Table 12, No LPS, human PBMC, peptide at ~18-24 μM; for MCP1: background subtracted 139 (HH2 derivatives), 170 (1018 derivatives), 242 (1002 and hybrid peptides) pg/ml
Method in brief: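 MCP-1 was quantified by capture ELISA in cleared culture supernatants of treated human peripheral blood mononuclear cells. Cells came from heparinized volunteer blood via Ficoll gradient and were seeded at 0.75 to 1×10^6 cells/ml (37 °C, 5% CO2).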

[2] = test system: LPS-stimulated human peripheral blood mononuclear cells (IL1-β); type: cell-based; conditions: Table 12, cells stimulated with 10 ng/ml LPS; for IL1β Production: LPS alone 1313 (HH2 derivatives), 1927 (1018 derivatives), 2455 (1002 and hybrid peptides) pg/ml
[3] = test system: methicillin resistant Staphylococcus aureus (MRSA) biofilm; conditions: approximate peptide concentration […] (around 3 μg/ml); compared to untreated samples
Method in brief: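 Peptide was present from inoculation onward, with bacteria seeded at 1/100 from overnight cultures into BM2 biofilm medium or Luria Broth. Crystal violet staining of surface-attached cells (A595) quantified biofilm reduction at 22–46 h. K. pneumoniae was additionally screened in a real-time Bioflux flow device for some peptides.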

Row | Substance | Fold increase in MCP1 cf. untreated cells [1] | MCP1 [1] | Fold change in IL1β relative to no peptide LPS stimulated cells [2] | IL1β Production [2] | % Biofilm inhibition [3]
1 | HH2-L12: single substituted HH2 peptide (VQLRIRVAVIRL-NH2) | 24 | 3916 pg/mL | 0.23 | 301 pg/mL | 51%
2 | 1002-Q10: single substituted 1002 peptide (VQRWLIVWRQRK-NH2) [Peptide 1002-Q10] | 1.3 | 71.2 pg/mL | 0.05 | 127 pg/mL | 39%
3 | 1018-W12: single substituted 1018 peptide (VRLIVAVRIWRW-NH2) [Peptide 1018-W12] | 1.5 | 79 pg/mL | 0.34 | 441 pg/mL | 65%
4 | 1002-R10: single substituted 1002 peptide (VQRWLIVWRRRK-NH2) [Peptide 1002-R10] | 2.5 | 375.3 pg/mL | 0.05 | 127 pg/mL | 15%
5 | HH2-R10: single substituted HH2 peptide (VQLRIRVAVRRA-NH2) | 5.1 | 701 pg/mL | 1.53 | 2003 pg/mL | 73%
6 | 1018-I7: single substituted 1018 peptide (VRLIVAIRIWRR-NH2) [Peptide 1018-I7] | 5.2 | 714 pg/mL | 0.10 | 127 pg/mL | 63%
7 | 1018-Q11: single substituted 1018 peptide (VRLIVAVRIWQR-NH2) [Peptide 1018-Q11] | 11 | 1773 pg/mL | 1.24 | 1625 pg/mL | 51%
8 | HH2-W2: single substituted HH2 peptide (VWLRIRVAVIRA-NH2) | 12 | 1802 pg/mL | 0.98 | 1293 pg/mL | 70%
9 | 1018-A10: single substituted 1018 peptide (VRLIVAVRIARR-NH2) [Peptide 1018-A10] | 1.0 | 7 pg/mL | 0.28 | 369 pg/mL | 54%
10 | HH2-W9: single substituted HH2 peptide (VQLRIRVAWIRA-NH2) | 31 | 4995 pg/mL | 0.80 | 1050 pg/mL | 75%
11 | 1002-I3: single substituted 1002 peptide (VQIWLIVWRIRK-NH2) [Peptide 1002-I3] | 13.2 | 2953.7 pg/mL | 0.05 | 127 pg/mL | 62%
12 | HH2-V3: single substituted HH2 peptide (VQVRIRVAVIRA-NH2) | 211 | 35750 pg/mL | 1.27 | 1665 pg/mL | 57%
13 | HH2-K5: single substituted HH2 peptide (VQLRKRVAVIRA-NH2) | 12 | 1923 pg/mL | 1.19 | 1559 pg/mL | 27%
14 | HH2-V2: single substituted HH2 peptide (VVLRIRVAVIRA-NH2) | 24 | 3945 pg/mL | 0.97 | 1267 pg/mL | 77%
15 | 1002-A7: single substituted 1002 peptide (VQRWLIAWRIRK-NH2) [Peptide 1002-A7] | 0.9 | -36.2 pg/mL | 0.05 | 132 pg/mL | 58%
16 | HH2-A1: single substituted HH2 peptide (AQLRIRVAVIRA-NH2) | 14 | 2254 pg/mL | 1.21 | 1587 pg/mL | 56%
17 | 1002-R2: single substituted 1002 peptide (VRRWLIVWRIRK-NH2) [Peptide 1002-R2] | 4.5 | 840.0 pg/mL | 0.05 | 127 pg/mL | 60%
18 | 1018-G8: single substituted 1018 peptide (VRLIVAVGIWRR-NH2) [Peptide 1018-G8] | 1.3 | 57 pg/mL | 0.10 | 127 pg/mL | 54%
19 | 1018-V11: single substituted 1018 peptide (VRLIVAVRIWVR-NH2) [Peptide 1018-V11] | 1.0 | 2 pg/mL | 0.94 | 1240 pg/mL | 29%
20 | 1002-Q4: single substituted 1002 peptide (VQRQLIVWRIRK-NH2) [Peptide 1002-Q4] | 0.9 | -28.8 pg/mL | 0.47 | 1165 pg/mL | 36%
21 | 1002-W12: single substituted 1002 peptide (VQRWLIVWRIRW-NH2) [Peptide 1002-W12] | 2.7 | 412.5 pg/mL | 0.05 | 127 pg/mL | 71%
22 | 1002-R5: single substituted 1002 peptide (VQRWRIVWRIRK-NH2) [Peptide 1002-R5] | 0.9 | -36.2 pg/mL | 0.14 | 349 pg/mL | 62%
23 | 1018-Q9: single substituted 1018 peptide (VRLIVAVRQWRR-NH2) [Peptide 1018-Q9] | 0.8 | -28 pg/mL | 1.00 | 1313 pg/mL | 38%
24 | 1018-G7: single substituted 1018 peptide (VRLIVAGRIWRR-NH2) [Peptide 1018-G7] | 25 | 4098 pg/mL | 1.23 | 1610 pg/mL | 47%
25 | HH2-A11: single substituted HH2 peptide (VQLRIRVAVIAA-NH2) | 5.9 | 833 pg/mL | 1.60 | 2105 pg/mL | 64%
26 | 1002-K3: single substituted 1002 peptide (VQKWLIVWRIRK-NH2) [Peptide 1002-K3] | 3.4 | 576.2 pg/mL | 0.06 | 137 pg/mL | 61%
27 | 1002-I2: single substituted 1002 peptide (VIRWLIVWRIRK-NH2) [Peptide 1002-I2] | 3.1 | 508.6 pg/mL | 0.05 | 127 pg/mL | 70%
28 | HH2-R12: single substituted HH2 peptide (VQLRIRVAVIRR-NH2) | 51 | 8574 pg/mL | 1.23 | 1618 pg/mL | 80%
29 | 1018-A3: single substituted 1018 peptide (VRAIVAVRIWRR-NH2) [Peptide 1018-A3] | 0.4 | -110 pg/mL | 0.57 | 748 pg/mL | 49%
30 | HH2-G9: single substituted HH2 peptide (VQLRIRVAGIRA-NH2) | 3.0 | 342 pg/mL | 1.04 | 1363 pg/mL | 59%
